Test results taken from patent US20250186456A1, “PYRIMIDINE-FUSED CYCLIC COMPOUND AND PREPARATION METHOD AND USE THEREOF” (Genfleet Therapeutics (Shanghai) Inc., priority 2021, published 2025).
Like-named read-outs stand apart in the source and are kept apart here.

How the values were obtained:
Format in all cases: cell-based, human
[1] = tested on: AsPC-1 cells (KRAS G12D mutation); assay: Cell proliferation inhibition assay, 3D, CellTiter-Glo 3D, AsPC-1; conditions: AsPC-1 3D sphere model, 5 days incubation
From the text: (§1) AsPC-1 was purchased from ATCC; catalog No: CRL-1682; AGS was purchased from ATCC; catalog No: CRL-1739; RPMI1640 was purchased from Gibco; catalog No: 11875-093 2235123; F12K was purchased from Gibco; catalog No: 21127-022; FBS was purchased from Gibco; catalog No: 10099-141C; trypsin (containing EDTA) was purchased from Gibco; catalog No: 25200-072; CellTiter Glo-3D was purchased from Progema; catalog No: G9683; 384-well sphere plates were purchased from Corning; catalog No: 3830; white opaque 384-well plates were purchased from Corning; catalog No: 3570; cell counters were purchased from CHEMOMETEC; model: NC-200; microplate reader was purchased from PerkinElmer; model: Envison;
(§2) AsPC-1 is an endogenous human pancreatic cancer cell containing KRAS^G12D mutation, cultured in RPMI-1640 medium containing 10% FBS; AGS is a human gastric cancer cell line containing KRAS^G12D, cultured in F-12K medium containing 10% FBS. Cells in the logarithmic growth phase were taken, digested with trypsin (containing EDTA), collected, and counted. 800 AsPC-1 cells/well or 400 AGS cells/well, respectively, were seeded in a 384-well sphere plate and cultured overnight at 5% CO2 to establish a 3D cell model. 1000X stock solutions of compounds at a 3.16-fold concentration gradient of were prepared using DMSO, diluted 100-fold into a 10X compound stock solution using the medium described above. The 10X compound stock solution was added to each cell on 2nd day after cell seeding at a final concentration of 1X and a DMSO content of 0.1%. DMSO was used as a control in the experiment, and the medium was used as blank. After the addition of the compounds, the cells were incubated for 5 days. 30 μl of CellTiter-Glo work solution was added to each well, mixed well, and incubated for 30 minutes. After standing at room temperature for 30 minutes, 40 μl of the mixed solution was transferred to an opaque 384-well plate with a white clear bottom. Luminescence chemiluminescence value was read by a microplate reader, and the cell proliferation inhibition rate (IR (%)=(RLU control-RLU compound)/(RLU control-RLU blank)×100%) was calculated. The gradiently diluted concentration of the compounds and corresponding cell proliferation inhibition rate were fitted using XLFit four-parameters method, and the IC50 value was calculated. […] The results of some exemplary compounds are shown in Table 2 (“−” represents untested).

[2] = tested on: p-ERK in AGS cells (KRAS G12D mutation); assay: Cell p-ERK assay (HTRF, Advance ERK phospho-T202/Y204 kit); conditions: AGS cells, 3 hours incubation with compound, HTRF, read-out: AGS p-ERK IC50
Experimental: AGS was purchased from ATCC; catalog No: CRL-1739; F12K was purchased from Gibco; catalog No: 21127-022; FBS was purchased from Gibco; catalog No: 10099-141C; trypsin (containing EDTA) was purchased from Gibco, catalog No: 25200-072; DMSO was purchased from VWRAMRESCO; catalog No: 0231-500 ML; 96-well cell culture plates were purchased from Corning; catalog No: 3599; white opaque 96-well plates were purchased from Cisbio; catalog No: 66PL96025; Advance ERK phospho-T202/Y204 kit was purchased from Cisbio; catalog No: 64AERPEH; cell counters were purchased from CHEMOMETEC; model No: NC-200; microplate reader was purchased from PerkinElmer; model No: Envison.
AGS is an endogenous human gastric adenocarcinoma cell line containing the KRAS^G12D mutation, cultured in F12K+10% FBS medium. On the first day of the experiment, cells in the logarithmic growth phase were taken, digested with trypsin (containing EDTA), collected, and counted. Approximately 20000 cells/well were seeded in a 96-well cell culture plate and cultured overnight in an incubator with 5% CO2. 1000X stock solutions of compounds at a 3.16-fold concentration gradient were prepared using DMSO, and diluted 200-fold into a 5X compound stock solution using the medium described above. The 5X compound stock solution was added to each cell culturing well the day after cell seeding at a final concentration of 1X and a DMSO content of 0.1%. DMSO was used as a control in the experiment. After the compound was added and the incubation was kept for 3 hours, the medium in the culture wells was removed. 50 μl of Cell lysis solution (from Advance ERK phospho-T202/Y204 kit, the same below) was added to each well, mixed well, and incubated for 30 minutes and then 16 μl of the mixed solution was transferred to a white opaque 96-well plate, another 16 μl of cell lysis solution was added to a well as a blank well. After transferring, 4 μl of p-ERK HTRF antibody mixture (from Advance ERK phospho-T202/Y204 kit) was added to each well. After incubation for 4 hours, HTRF fluorescence value (RLU) was read by a microplate reader, and p-ERK level inhibition rate (IR (%)=(RLU control-RLU compound)/(RLU control-RLU blank)×100%) of the compounds was calculated. The concentration of the compounds and corresponding cell p-ERK level inhibition rate were fitted using Prism 8 four-parameters method, and the IC50 value was calculated.

[3] = tested on: AGS cells (KRAS G12D); assay: Cell proliferation inhibition assay, 3D, CellTiter-Glo 3D, AGS; conditions: AGS 3D sphere model, 5 days incubation
From the text: as §1, §2

SMILES	IC50 ([1]; Homo sapiens, ASPC1, 120 h) [nM]	IC50 ([2]; Homo sapiens) [nM]	IC50 ([3]; Homo sapiens, 120 h) [nM]	IC50 [1] [nM]	IC50 [2] [nM]	IC50 [3] [nM]
C#Cc1c(F)ccc2cccc(-c3nc4c5c(nc(OCC67CC(=C)CN6C[C@H](OC)C7)nc5c3F)N3C[C@H]5CC[C@H](N5)[C@H]3[C@H](C)O4)c12 (stereo partly drawn) [Example Z691, (5S,5aS,6S,9R)-2-(8-Ethynyl-7-Fluoronaphthalen-1-Yl)-1-Fluoro-12-(((2R)-2-Methoxy-6-Methylenetetrahydro-1H-Pyrrolizin-7a (5H)-Yl)Methoxy)-5-Methyl-5a,6,7,8,9,10-Hexahydro-5H-4-Oxa-3,10a,11,13,14-Pentaaza-6,9-Methanonaphtho[1,8-Ab]Heptalene]	87.9	14.2	54.6			
C#Cc1c(F)ccc2cccc(-c3nc4c5c(nc(OCC67CCCN6[C@@H]6C[C@@H]6C7)nc5c3F)N3C[C@H]5CC[C@H](N5)[C@H]3[C@H](C)O4)c12 (stereo partly drawn) [Example Z624, (5S,5aS,6S,9R)-2-(8-ethynyl-7-fluoronaphthalen-1-yl)-1-fluoro-12-(((1aR,6aR)-hexahydrocyclopropa[b]pyrrolizin-5a (3H)-yl)methoxy)-5-methyl-5a,6,7,8,9,10-hexahydro-5H-4-oxa-3,10a, 11, 13, 14-pentaaza-6,9-methanonaphtho[1,8-ab]heptalene]	194	47.3	88.2			
C#Cc1c(F)ccc2cccc(-c3nc4c5c(nc(OCC67CC(OC)CN6CCC7=C)nc5c3F)N3C[C@H]5CC[C@H](N5)[C@H]3[C@H](C)O4)c12 (stereo partly drawn) [Example Z681, (5S,5aS,6S,9R)-2-(8-Ethynyl-7-Fluoronaphthalen-1-Yl)˜1-Fluoro-12-((6-Methoxy-1-Methylenetetrahydro-1H-Pyrrolizin-7a (5H)-Yl)Methoxy)-5-Methyl-5a,6,7,8,9,10-Hexahydro-5H-4-Oxa-3,10a,11,13,14-Pentaaza-6,9-Methanonaphtho[1,8-Ab]Heptalene]				37.9	5.73	13
C#Cc1c(F)ccc2cccc(-c3nc4c5c(nc(OCC6(CN7CCC(O)C7)CC6)nc5c3F)N3C[C@H]5CC[C@H](N5)[C@H]3[C@H](C)O4)c12 (stereo partly drawn) [Example Z721]				105	37.5	43.6
C#Cc1cccc2c(F)c(N)cc(-c3nc4c5c(nc(OCC67CCCN6CC(F)(F)C7)nc5c3F)N3C[C@H]5CC[C@H](N5)[C@H]3[C@H](C)O4)c12 (stereo partly drawn) [Example Z725, 4-((5S,5aS,6S,9R)-12-((2,2-difluorotetrahydro-1H-pyrrolizin-7a (5H)-yl)methoxy)-1-fluoro-5-methyl-5a,6,7,8,9,10-hexahydro-5H-4-oxa-3,10a,11,13,14-pentaaza-6,9-methanonaphtho[1,8-ab]heptalen-2-yl)-5-ethynyl-1-fluoronaphthalen-2-amine]	106	42.3	62.7			
C#Cc1cccc2cc(N)cc(-c3nc4c5c(nc(OCC6(CN7CC(F)(F)C7)CC6)nc5c3F)N3C[C@H]5CC[C@H](N5)[C@H]3[C@H](C)O4)c12 [Example Z713, 4-((5S,5aS,6S,9R)-12-((1-((3,3-difluoroazetidin-1-yl)methyl)cyclopropyl)methoxy)-1-fluoro-5-methyl-5a,6,7,8,9,10-hexahydro-5H-4-oxa-3,10a, 11, 13,14-pentaaza-6,9-methanonaphtho[1,8-ab]heptalen-2-yl)-5-ethynylnaphthalen-2-amine]	55.6	22	73.5			
C#Cc1cccc2cc(N)nc(-c3nc4c5c(nc(OCC67CC(=C)CN6C[C@H](F)C7)nc5c3F)N3C[C@H]5CC[C@H](N5)[C@H]3[C@H](C)O4)c12 (stereo partly drawn) [Example Z685, 8-Ethynyl-1-((5S,5aS,68,9R)-1-Fluoro-12-(((2R)-2-Fluoro-6-Methylenetetrahydro-1H-Pyrrolizin-7a (5H)-Yl)Methoxy)-5-Methyl-5a,6,7,8,9,10-Hexahydro-5H-4-Oxa-3,10a,11,13,14-Pentaaza-6,9-Methanonaphtho[1,8-Ab]Heptalen-2-Yl) Isoquinolin-3-Amine]	258	30.3	145			
C#Cc1c(F)ccc2cccc(-c3nc4c5c(nc(OC[C@]67CCCN6CC(=C)C7)nc5c3F)N3C[C@H]5CC[C@H](N5)[C@H]3[C@H](C)O4)c12 (single isomer, unassigned) [Example Z636]	30.6	10.5	10.9			
C#Cc1c(F)ccc2cccc(-c3nc4c5c(nc(OCC6(CN7CCOCC7)CC6)nc5c3F)N3C[C@H]5CC[C@H](N5)[C@H]3[C@H](C)O4)c12 [Example Z693, (58,5aS,6S,9R)-2-(8-ethynyl-7-fluoronaphthalen-1-yl)-1-fluoro-5-methyl-12-((1-(morpholinomethyl)cyclopropyl)methoxy)-5a,6,7,8,9,10-hexahydro-5H-4-oxa-3,10a, 11, 13,14-pentaaza-6,9-methanonaphtho[1,8-ab]heptalene]	31.1	9.23	27.3			
C#Cc1cccc2c(F)c(N)cc(-c3nc4c5c(nc(OCC6(CN7CCOCC7)CC6)nc5c3F)N3C[C@H]5CC[C@H](N5)[C@H]3[C@H](C)O4)c12 [Example Z715, 5-ethynyl-1-fluoro-4-((5S,5aS,6S,9R)-1-fluoro-5-methyl-12-((1-(morpholinomethyl)cyclopropyl)methoxy)-5a,6,7,8,9,10-hexahydro-5H-4-oxa-3,10a, 11,13, 14-pentaaza-6,9-methanonaphtho[1,8-ab]heptalen-2-yl) naphthalen-2-amine]	3.83	1.94	3.44			
C#Cc1c(F)ccc2cccc(-c3nc4c5c(nc(OCC67C[C@@H](OC)CN6CCC7=C)nc5c3F)N3C[C@H]5CC[C@H](N5)[C@H]3[C@H](C)O4)c12 (stereo partly drawn) [Example Z688, (5S,5aS,6S,9R)-2-(8-Ethynyl-7-Fluoronaphthalen-1-Yl)-1-Fluoro-12-(((6R)-6-Methoxy-1-Methylenetetrahydro-1H-Pyrrolizin-7a (5H)-Yl)Methoxy)-5-Methyl-5a,6,7,8,9,10-Hexahydro-5H-4-Oxa-3,10a,11,13,14-Pentaaza-6,9-Methanonaphtho[1,8-Ab]Heptalene]	39.2	8.77	20			
C#Cc1c(F)ccc2cc(N)cc(-c3nc4c5c(nc(OCC67CCCN6CC(F)(F)C7)nc5c3F)N3C[C@H]5CC[C@H](N5)[C@H]3[C@H](C)O4)c12 (stereo partly drawn) [Example Z722, 4-((5S,5aS,6S,9R)-12-((2,2-difluorotetrahydro-1H-pyrrolizin-7a (5H)-yl)methoxy)-1-fluoro-5-methyl-5a,6,7,8,9,10-hexahydro-5H-4-oxa-3,10a, 11,13,14-pentaaza-6,9-methanonaphtho[1,8-ab]heptalene-2-yl)-5-ethynyl-6-fluoronaphthalen-2-amine]	9.29	7.22	12.8			
